We go through 39 substances from patent publication US9464106B2, “Oligonucleotides useful for detecting and analyzing nucleic acids of interest” (Exiqon A/S, priority 2002, dated 2016).

l = locked nucleic acid (LNA); [5mC] = 5-methylcytosine; d = 2'-deoxy (DNA)

This data set has as its system yeast HSP78 (YDR258C) sequence. As to the kind of experiment: Duplex melting temperatures of HSP78 25-mer capture probes (UV spectrophotometer). The settings on record: 25-mer capture probe duplex with complementary target; design PM = perfectly matched, MM = single mismatch; DNA, LNA_T (T) or LNA_TC (TC) substituted.
For “12761 (DNA AAATAGCAGCAATGGCCTCGTCTTG; DNA, backbone not given here; further chemistry not fully specified) [compound 12761]”, the “Average duplex melting temp.” value was found to be 69.2 °C.

On to “12738 (DNA ATAGCAGCAATGCCCTCGTCTTGGC; sugars from the 5' end dlddldddddlddddldddldlddd, [5mC] at 5, 20, backbone not given here) [compound 12738]”, for which the “Average duplex melting temp.” value came to 71.5 °C. For “12691 (DNA GCAATGGCCTCGACTTGGCCAACGA; DNA, backbone not given here) [compound 12691]”, the “Average duplex melting temp.” value came out at 68.5 °C. With “12749 (DNA AAAACGACAGCAAAAGGCTTTCTTC; sugars from the 5' end ddddlddlddlddddddlldlldld, [5mC] at 5, 8, 11, 18, 22, backbone not given here) [compound 12749]”, the “Average duplex melting temp.” value was 72 °C. In the case of “12708 (DNA GAAACATCGGGGAGCGCTTTTTCAA; sugars from the 5' end d6 l1 d10 l5 d3, backbone not given here) [compound 12708]”, the “Average duplex melting temp.” value was 69.9 °C.

Take “12729 (DNA CAATGATCGTGTTACGGAAATCAAC; sugars from the 5' end lddlddlldlddddldddddllddd, [5mC] at 1, 8, 15, 22, backbone not given here; further chemistry not fully specified) [compound 12729]”: the “Average duplex melting temp.” value was found to be 75.5 °C. As for “12713 (DNA AAATAGCAGCAAAGGCCTCGTCTTG; DNA at ACG, LNA at T, backbone not given here) [compound 12713]”, the “Average duplex melting temp.” value came to 70.4 °C. “12702 (DNA ATTGACCTCAAATCTTTCTTGGATA; DNA, backbone not given here) [compound 12702]”: the “Average duplex melting temp.” value amounted to 54.5 °C. To “12744 (DNA TTTGGTAGCACGTCAAGCTTAGTAT; sugars from the 5' end ldlddlddldlddddddldlddldd, [5mC] at 9, 11, 18, backbone not given here) [compound 12744]” belongs 73.3 °C; to “12780 (DNA GAAACATCGGGGTGCGCTTTTTCAA; DNA at ACG, LNA at T, backbone not given here; further chemistry not fully specified) [compound 12780]”, 78 °C; to “12743 (DNA AGACGTACAGCAACAGAAATAGCAG; sugars from the 5' end dddldldlddlddddddddlddldd, [5mC] at 4, 8, 11, 23, backbone not given here) [compound 12743]”, 73.6 °C. For the substance “12755 (DNA TTGGAAACATCGGGGTGCGCTTTTT; DNA, backbone not given here; further chemistry not fully specified) [compound 12755]”, the “Average duplex melting temp.” value stood at 70.8 °C.

“12812 (DNA GATGAACTCAGGTGGATAGGATCTT; sugars from the 5' end ddldddllldddldddlddddllld, all C 5-methyl, backbone not given here; further chemistry not fully specified) [compound 12812]”: the “Average duplex melting temp.” value was determined as 77.3 °C. Consider “12781 (DNA GACAGCCTCAGTTAATTGGCCACCA; sugars from the 5' end dddddddlddddlddlldddddddd, backbone not given here; further chemistry not fully specified) [compound 12781]”, for which the “Average duplex melting temp.” value came out at 75.4 °C.

As for “12703 (DNA CCCAACTTTGTGACGTTTAATAAAA; DNA, backbone not given here) [compound 12703]”, the “Average duplex melting temp.” value was determined as 56.2 °C.

Consider “12732 (DNA GAAACATCGGGGAGCGCTTTTTCAA; sugars from the 5' end ddddldllddddddldddddldldd, [5mC] at 5, 8, 15, 23, backbone not given here) [compound 12732]”, for which the “Average duplex melting temp.” value was determined as 74.8 °C. In the case of “12741 (DNA TCAGTTAGCCAAACCTTCGCTTCAT; sugars from the 5' end dlddlddddlddddddlddlddldd, [5mC] at 2, 10, 20, 23, backbone not given here) [compound 12741]” it was 70.6 °C.

For the substance “12774 (DNA ATTGACCTCAAAACTTTCTTGGATA; DNA, backbone not given here; further chemistry not fully specified) [compound 12774]”, the “Average duplex melting temp.” value was found to be 61.8 °C. As to “12820 (DNA TCAATGGCCTTGCACCATATAATTG; sugars from the 5' end llddlddldlldlddldldlddlld, [5mC] at 2, 8, 13, 16, backbone not given here; further chemistry not fully specified) [compound 12820]”, the “Average duplex melting temp.” value was determined as 83.5 °C. For the substance “12802 (DNA TGGCCTAGGGAATCGGTCAGCTTAC; sugars from the 5' end lddldlddddddllddldddldldd, [5mC] at 4, 14, 21, backbone not given here; further chemistry not fully specified) [compound 12802]”, the “Average duplex melting temp.” value was determined as 83.6 °C. On to “12711 (DNA ATCAAATAGGAAATCAGCTAAAGCC; sugars from the 5' end dlddddldddddddddddldddddd, backbone not given here) [compound 12711]”, for which the “Average duplex melting temp.” value stood at 58.1 °C. With “12784 (DNA GACCTAAGAACATAAAGCTGGCAAT; sugars from the 5' end ddddldddddddldddddldddddd, backbone not given here; further chemistry not fully specified) [compound 12784]”, the “Average duplex melting temp.” value is 67.5 °C.

Turning to “12740 (DNA GATGAACTCAGGAGGATAGGATCTT; sugars from the 5' end ddldddllldddddddlddddllld, all C 5-methyl, backbone not given here) [compound 12740]”, the “Average duplex melting temp.” value came to 70.4 °C. Take “12692 (DNA GATGAACTCAGGAGGATAGGATCTT; DNA, backbone not given here) [compound 12692]”: the “Average duplex melting temp.” value was 58.2 °C. As for “12768 (DNA TTTGGTAGCACGACAAGCTTAGTAT; DNA, backbone not given here) [compound 12768]”, the “Average duplex melting temp.” value amounted to 65.7 °C.

Consider “12707 (DNA TTGGAAACATCGCGGTGCGCTTTTT; sugars from the 5' end lldddddddldddddlddddlllld, backbone not given here) [compound 12707]”, for which the “Average duplex melting temp.” value was 68.6 °C. To “12795 (DNA CACTCTAACAGTTTCGCCGTTTCTA; sugars from the 5' end dddldlddddddlddddddllldld, backbone not given here; further chemistry not fully specified) [compound 12795]” belongs 75.5 °C; to “12762 (DNA ATAGCAGCAATGGCCTCGTCTTGGC; DNA, backbone not given here; further chemistry not fully specified) [compound 12762]”, 72.7 °C; to “12786 (DNA ATAGCAGCAATGGCCTCGTCTTGGC; DNA at ACG, LNA at T, backbone not given here; further chemistry not fully specified) [compound 12786]”, 80.1 °C. To “12722 (DNA TTTTTCGGCCAATCGATCTTGAATT; sugars from the 5' end ldllldddddddddddldlldddld, backbone not given here) [compound 12722]” belongs 65.9 °C; to “12719 (DNA AGACGTACAGCAACAGAAATAGCAG; sugars from the 5' end d5 l1 d13 l1 d5, backbone not given here) [compound 12719]”, 65 °C. For “12810 (DNA ATAGCAGCAATGGCCTCGTCTTGGC; sugars from the 5' end dlddldddddlddldldddldlddd, [5mC] at 5, 14, 20, backbone not given here; further chemistry not fully specified) [compound 12810]”, the “Average duplex melting temp.” value came out at 83 °C.

Turning to “12735 (DNA ATCAAATAGGAAATCAGCTAAAGCC; sugars from the 5' end dlldddldddddddlddllddddld, [5mC] at 3, 15, 18, 24, backbone not given here) [compound 12735]”, the “Average duplex melting temp.” value was 64.6 °C. With “12787 (DNA GCAATGGCCTCGTCTTGGCCAACGA; DNA at ACG, LNA at T, backbone not given here; further chemistry not fully specified) [compound 12787]”, the “Average duplex melting temp.” value stood at 80.8 °C.

Regarding “12681 (DNA CAATGATCGTGTAACGGAAATCAAC; DNA, backbone not given here) [compound 12681]”, the “Average duplex melting temp.” value turned out to be 59.3 °C. For the substance “12771 (DNA CACTCTAACAGTTTCGCCGTTTCTA; DNA, backbone not given here) [compound 12771]”, the “Average duplex melting temp.” value was 66.3 °C. In the case of “12734 (DNA CCGATTAAACGACAGACAGTATGCT; sugars from the 5' end llddlldddlddddddlddldldld, [5mC] at 1, 2, 10, 17, 24, backbone not given here) [compound 12734]” it was 70.2 °C; in that of “12687 (DNA ATCAAATAGGAAATCAGCTAAAGCC; DNA, backbone not given here) [compound 12687]”, 54.3 °C. Consider “12790 (DNA GTTGCCATGGAGTTCAAAATCTGTC; sugars from the 5' end dllddddlddddlddddddldldld, backbone not given here; further chemistry not fully specified) [compound 12790]”, for which the “Average duplex melting temp.” value is 74.7 °C.
